In patent US7662853B2, “Monoacetyldiacylglycerol derivative for the treatment of sepsis” (priority 2004, dated 2010):

Legend:
T-cells [1] = assay: T-cell proliferation (3H-thymidine incorporation, SI); type: cell-based, C57BL/6 mice; details: 7th day
From the text: Splenocytes were collected from C57BL/6 mice (provided from Asan Institute for Life Sciences Animal Lab., Seoul, Korea) spleens. Then, single cell suspensions were obtained by repeated aspiration and flushing. Red blood cells were removed using ammonium chloride and then passed through nylon wool to remove debris and clumps. T-cells were purified using magnetic bead (MACS bead, Miltenyi Biotec, bergich gladbach, Germany) containing anti-goat IgG MACS bead, Miltenyi Biotec, bergich gladbach, Germany) or anti-mouse CD4 (MACS bead, Miltenyi Biotec, bergich gladbach, Germany) or anti-mouse CD8 antibody (MACS bead, Miltenyi Biotec, bergich gladbach, Germany) (Turner and Dockrell (1996) Immunology, 87: 339-342).
T cell suspensions were suspended in Isocove's modified Dulbecco's medium (IMDM, Gibco, Grand Island, N.Y.) supplemented with 10% fetal bovine serum (referred as ‘FBS’ hereinafter) (Gibco, Grand Island, N.Y.). […] On the 6th day, cells were incubated with 1 μCi ^3H-thymidine/well for 24 hours. On the 7th day, the cells were harvested and the […] (referred as ‘SI’ hereinafter) was calculated by the following Mathematical Formula 1. SI=^3H-thymidine absorbed by wells of experimental group (CPM in sample)/^3H-thymidine absorbed by wells of control group (CPM in control) [Mathematical Formula 1]

malignant melanoma cells = assay: Cytotoxicity of T-cells activated by Compound 3 to malignant melanoma cells; type: cell-based; details: ratio of T-cells activated by Compound 3 to melanoma cells 100:1; FIG. 16: 1 μg/ml
rats = assay: Long term hepatotoxicity test; type: in vivo; details: 100 mg/Kg body weight/day P.O. for 4 weeks
From the text: At the end of 4 weeks liver histology was observed.

dendritic cells = assay: Expression of adhesion molecules of dendritic cells (RT-PCR); type: cell-based, Balb/c AnN mice; details: 1 μg/ml, compared to control
Description: Bone marrow cells were obtained from the femurs and tibias of Balb/c AnN mice (Park, J. et al. (2003) J. Korean Med. Sci., 18: 372-380). The cells were washed 3 times in RPMI, and then mononuclear cells were obtained. These mononuclear cells were allowed to adhere to tissue culture flask 3 hours in RPMI and 10% FBS. After incubation, the adherent cells (monocytes) were removed and non-adherent cells were placed in 100 mm tissue culture dishes, in a concentration of 1×10^5 cells/ml in RPMI plus 10% FBS supplemented with 20 ng/ml murine rGM-CSF (R & D systems, Minneapolis, Minn., USA), 10 ng/ml, murine IL-4 (R&D systems), and 2.5 ng/ml murine TNF-α (R & D systems). Culture dishes were fed every 3 days. Murine TNF-α (R & D systems) was added at the 6th day of the culture. After that, murine TNF-α (R & D systems) was added every 3 days until on the 11th day. Mature dendritic cells were harvested for RT-PCR of adhesion molecule studies. […]
Total RNA separated from dendritic cells and MS-5, low density cells cultured with oligo(dt)-primer, was reverse-transcribed, and PCR was performed at 94° C. for 30 seconds, 65° C. for 30 seconds and 72° C. for 50 seconds. […] For the quantification, PCR with GAPDH was performed to confirm the corresponding cDNA.

T-cell (T-4 and T-8) = assay: Measurement of cytokine (IL-2) by Elispot, T cell activity; type: cell-based, mouse; details: FIG. 1: Compound 3 1 μg/ml
Description: Elispot bioassay ([…] enzyme-linked immunospot assay) is a very sensitive quantification assay for detecting cytokine bound to the membrane because the bottom of each well of Elispot plates used in this assay was pre-coated with a cytokine specific antibody. Thus, Elispot assay was performed to measure the T cell activity. […] Each sample was tested in duplicate. Counting the number of IL-2 producing cells by Elispot is accomplished with Elispot reader (AID Elispot Reader System).

[2] = system: C3H/HeN mice with CLP-induced septic shock; assay: CLP (Cecal Ligation and Puncture) test, septic shock; type: in vivo; details: 50 mg/kg oral
From the text: Ten 7-10 week old male inbred C3H/HeN mice (20-25 g of weight) were grouped. […] Septic shock was induced by CLP model in anesthetized mice. […] Control group was orally administered PBS+5% ethanol solution.

T-cells [3] = assay: Measurement of cytokine by Bio-plex in activated T-cells; type: cell-based; details: anti-CD3, anti-CD28 treated T-cells, 0.1, 1 μg/ml, 5 days, vs control
Description: Bio-plex can measure huge amount of cytokine at a time in a well. Thus, Bio-plex kit was used to quantify 8 kinds of cytokines of Th1/Th2 channels, which are secreted when T-cells are activated. Sterilized 24-well tissue culture plate (Nunc, Denmark) was treated with anti-CD3 and anti-CD28. Then, the plate was inoculated with T-cells by 2×10^6 cells/ml. […] On the 5th day, culture solutions at each different stage were recovered, followed by centrifugation. Supernatants were obtained and cytokine secreted therein was quantified by using Bio-plex kit according to the manufacturer's instruction (Bio-rad).

## CCCCC/C=C\C/C=C\CCCCCCCC(=O)OC(COC(C)=O)COC(=O)CCCCCCCCCCCCCCC (centres unmarked) [Compound 3]
T-cells [1]; 0.01 μg/ml
  SI: 1.83 ± 0.32
T-cells [1]; 0.1 μg/ml
  SI: 1.96 ± 0.18
Malignant melanoma cells
  cytotoxicity increased: 42%
rats
  adverse effect (liver function test, lipid profile, cytochrome C-450 activity, liver histology): No significantly adverse effect was observed
Dendritic cells
  expressions of adhesion molecules Icam-2, VLA-5, LFA-1: significantly increased
T-cell (T-4 and T-8); T-4 cells
  increased T-4 activity comparing to control group (IL-2 Elispot spots): 1.52 folds
T-cell (T-4 and T-8); T-8 cells
  increased T-8 activity comparing to control group (IL-2 Elispot spots): 1.46 folds
[2]; 0 hour
  Survival rate: 100%
[2]; 24 hours
  Survival rate: 100%
[2]; 48 hours
  Survival rate: 100%
[2]; 72 hours
  Survival rate: 100%
[2]; 96 hours
  Survival rate: 100%
[2]; 120 hours, 50 mg/kg
  Survival rate: 100%
T-cells [3]
  amounts of secreted cytokines IL-2, IL-4 and IL-5: bigger than those in a control group
